This passage reports TGI and GI50 results from PubChem BioAssay (NCI).

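Five concentrations, 48 hours, 96-well plates. Here, GI50 denotes the concentration required for 50% inhibition of growth. TGI marks complete inhibition of growth.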 Where only a bound is given, the exact number is not on record here.

Test systems include ACHN renal; UACC-62 melanoma; SW-620 colon; CCRF-CEM leukemia; NCI-H226 lung; HOP-92 NSCLC; SF-295 CNS; A549 NSCLC; CAKI-1 renal; SF-268 CNS.
Test in all cases: growth of human tumour cells (NCI), 48 h

As for `CSC(=S)N/N=C/c1nccc2ccccc12`, the TGI in the experiment with ACHN renal was found to be 12.2 µM; in the experiment with UACC-62 melanoma, 6.08 µM; with SW-620 colon, 18.8 µM; in the experiment on CCRF-CEM leukemia, 8.8 µM; with NCI-H226 lung it was 12 µM; with HOP-92 NSCLC it was 6.36 µM. The TGI was found to be 8.54 µM with SF-295 CNS, 9.87 µM in the experiment with A549 NSCLC, 14.2 µM in the experiment on CAKI-1 renal and 9.65 µM in the experiment on SF-268 CNS.

Regarding `O=C1CCCCN1CCCCC#Cc1cccc(C#Cc2cccnc2)c1`, the GI50 in the experiment with ACHN renal was 9.64 µM; in the experiment with UACC-62 melanoma, 4.82 µM; in the experiment on SW-620 colon, 39.9 µM; in the experiment on CCRF-CEM leukemia it was 30.9 µM; in the experiment on NCI-H226 lung it was 12.9 µM; with HOP-92 NSCLC, 19.2 µM. The GI50 with SF-295 CNS is 18.1 µM; in the experiment on A549 NSCLC it was 18.4 µM; with CAKI-1 renal, 35.5 µM; in the experiment with SF-268 CNS, 27 µM. In addition, the TGI in the experiment on ACHN renal is 21.7 µM; in the experiment with UACC-62 melanoma it was 16.9 µM; in the experiment on SW-620 colon it was above 100 µM; in the experiment with CCRF-CEM leukemia, above 100 µM; in the experiment with NCI-H226 lung, 34 µM; in the experiment on HOP-92 NSCLC, above 100 µM. Besides, the TGI in the experiment with SF-295 CNS is 84 µM; in the experiment on A549 NSCLC, 60.6 µM; in the experiment with CAKI-1 renal, above 100 µM; with SF-268 CNS it was above 100 µM.

Take `CCN(C(=O)/C=C/c1ccco1)c1ccccc1`: the TGI in the experiment on ACHN renal, with UACC-62 melanoma, in the experiment with SW-620 colon, in the experiment with CCRF-CEM leukemia, in the experiment on NCI-H226 lung and in the experiment on HOP-92 NSCLC was above 100 µM throughout. In addition, the TGI in the experiment on SF-295 CNS, in the experiment with A549 NSCLC, in the experiment on CAKI-1 renal and in the experiment with SF-268 CNS was above 100 µM each time.

Regarding `O=[N+]([O-])c1ccc(-c2ccc(-c3csc(Nc4ccccc4)n3)o2)cc1`, the TGI in the experiment with ACHN renal was 31.1 µM; in the experiment on UACC-62 melanoma it was 37.2 µM; in the experiment on SW-620 colon it was 56.7 µM; in the experiment with CCRF-CEM leukemia it was 16.9 µM; in the experiment on NCI-H226 lung it was above 84.1 µM; with HOP-92 NSCLC, 37 µM. Further, the TGI in the experiment with SF-295 CNS is above 86.4 µM; in the experiment on A549 NSCLC, above 100 µM; in the experiment with CAKI-1 renal, 39.5 µM; in the experiment with SF-268 CNS it was 33.2 µM.

Consider `O=c1c2cc(Br)ccc2nc(CCl)n1-c1ccc(O)c([N+](=O)[O-])c1`, for which the TGI was 79.9 µM in the experiment with ACHN renal; 72.5 µM in the experiment on UACC-62 melanoma; 35.2 µM with SW-620 colon; 52.9 µM in the experiment on CCRF-CEM leukemia; 29.3 µM in the experiment on NCI-H226 lung; 56.6 µM with HOP-92 NSCLC. The TGI is 31.5 µM with SF-295 CNS, 52.3 µM in the experiment on A549 NSCLC, 49.3 µM in the experiment with CAKI-1 renal and 44 µM in the experiment with SF-268 CNS.

Take `CC(C)(C)OC(=O)NCCCCCCCn1c2c(c3ccccc3c1=O)C(=O)c1ccccc1-2`: the GI50 was 27.1 µM in the experiment on ACHN renal; 20 µM in the experiment with UACC-62 melanoma; 44 µM in the experiment on SW-620 colon; 76.1 µM in the experiment on CCRF-CEM leukemia; 31.3 µM in the experiment with NCI-H226 lung; 15 µM with HOP-92 NSCLC. Besides, the GI50 in the experiment on SF-295 CNS is 37.4 µM; in the experiment on A549 NSCLC, 31.8 µM; in the experiment with CAKI-1 renal, 32.2 µM; with SF-268 CNS, 25.4 µM. The TGI with ACHN renal was 90.4 µM; in the experiment with UACC-62 melanoma, 72.8 µM; in the experiment with SW-620 colon it was above 100 µM; in the experiment on CCRF-CEM leukemia, above 100 µM; in the experiment with NCI-H226 lung it was 77.8 µM; with HOP-92 NSCLC it was 37.1 µM. Also, the TGI was above 100 µM in the experiment with SF-295 CNS, above 100 µM in the experiment with A549 NSCLC, 73 µM in the experiment with CAKI-1 renal and 93.6 µM with SF-268 CNS.

Turning to `CN(C)C(=O)O[C@H]1CN[C@H](C#Cc2cc3ncnc(Nc4ccc(OCc5cccc(F)c5)c(Cl)c4)c3s2)C1`, the GI50 in the experiment with ACHN renal was 6.27 µM; in the experiment with UACC-62 melanoma, above 25 µM; with SW-620 colon, above 25 µM; in the experiment with CCRF-CEM leukemia, 3.17 µM; in the experiment with NCI-H226 lung it was 5.49 µM; in the experiment with HOP-92 NSCLC, 1.77 µM. The GI50 is above 20 µM with SF-295 CNS, 6.12 µM in the experiment with A549 NSCLC, 4.06 µM with CAKI-1 renal and 5.41 µM in the experiment with SF-268 CNS. Further, the TGI was above 25 µM in the experiment on ACHN renal; above 25 µM in the experiment with UACC-62 melanoma; above 25 µM in the experiment on SW-620 colon; above 25 µM in the experiment with CCRF-CEM leukemia; 19.2 µM in the experiment on NCI-H226 lung; 19.4 µM in the experiment on HOP-92 NSCLC. Besides, the TGI in the experiment on SF-295 CNS, with A549 NSCLC, in the experiment on CAKI-1 renal and in the experiment with SF-268 CNS was above 25 µM throughout.

As for `O=c1oc2ccc(I)cc2c(=O)n1-c1ccc(Cl)cc1F`, the GI50 with ACHN renal was 1.62 µM; in the experiment with UACC-62 melanoma it was 0.419 µM; in the experiment with SW-620 colon it was 2.02 µM; in the experiment with CCRF-CEM leukemia, 2.97 µM; in the experiment on NCI-H226 lung, 1.96 µM; in the experiment with HOP-92 NSCLC it was 0.181 µM. Moreover, the GI50 in the experiment on SF-295 CNS was 1.8 µM; in the experiment with A549 NSCLC, 2.87 µM; with CAKI-1 renal it was 1.09 µM; in the experiment on SF-268 CNS it was 1.51 µM. Besides, the TGI in the experiment on ACHN renal is 12.8 µM; in the experiment with UACC-62 melanoma, 2.28 µM; in the experiment with SW-620 colon, 88.2 µM; with CCRF-CEM leukemia, 46.6 µM; in the experiment on NCI-H226 lung, 8.53 µM; in the experiment on HOP-92 NSCLC, 0.726 µM. The TGI in the experiment with SF-295 CNS was 3.69 µM; with A549 NSCLC, above 100 µM; in the experiment with CAKI-1 renal it was 5.61 µM; in the experiment with SF-268 CNS, 16.7 µM.
